Laboratory results published in patent publication US20240343733A1, “COMPOUNDS FOR TARGETING DEGRADATION OF IRAK4 PROTEINS” (BIOGEN MA INC., priority 2021, published 2024).

Tested on: IRAK4
Assay: Pharmacodynamics (PD) in Male Cynomolgus Monkeys, IRAK4 quantitation in PBMCs by MSD
Assay type: in vivo
Conditions: male cynomolgus monkey PBMCs
Procedure: Assay 6. Pharmacodynamics (PD) in Male Cynomolgus Monkeys
For PBMC isolation, approximately 1 mL of blood sample was collected in a BD Vacutainer® EDTA Tubes (Catalog no. 36643, Becton, Dickinson and Co., Franklin Lakes, NJ, USA) with K2-EDTA and stored at room temperature (RT). The blood was diluted 1:1 with PBS at room temperature. The tube contents were mixed gently by pipetting up and down 5 times. The PBS/blood mixture was layered carefully on the top of 2 ml Ficoll® Paque Plus (Catalog no. 17-1440-03, Cytiva, Marlborough, MA, USA) in 15 mL falcon tubes, then centrifuged at RT for 30 minutes at 600 g with acceleration set at 6 and brake set at 0. The middle ‘cloudy’ interface between plasma and Ficoll® Paque Plus containing the PBMCs was transferred to a 15 mL tube and washed once with 10 mL of PBS, then centrifuged for 10 minutes at RT at 250 g. The supernatant was discarded without disturbing the cell pellet. If red blood cells were still present, 1 mL of lysis buffer was added, incubated for 2 minutes at RT, then 10 mL PBS was added to terminate lysis, and then centrifuged for 5 minutes at RT at 250 g. The supernatant was discarded without disturbing the cell pellet and stored at −80° C. until analysis.
For cell counting, the cell suspension was diluted 1:1 with Trypan Blue dye and mixed well. The cell numbers (live and dead) were counted, and cell viability calculated. The cell numbers and cell viability of each PBMC sample were recorded.
For sample preparation for MSD analysis, 2 million cells were subjected to lysis by 100 μL of RIPA lysis and extraction buffer (Catalog no 89900, ThermoScientific, Waltham, MA, USA) with phosphatase and protease inhibitors were added for 30 minutes at 4° C. To prepare RIPA lysis and extraction buffer with phosphatase and protease inhibitors, 1 tablet of cOmplete™, 1 tablet of PhosSTOP™, 100 μL each of Phosphatase Inhibitor Cocktail 2 and 3 (all catalog no. 11836153001, 4906845001, P5726 and P0044 respectively, Sigma Aldrich, St. Louis, MO, USA) were mixed with 10 mL RIPA buffer. The lysed PBMC samples were stored at −80° C. until analysis. Samples were completely thawed before being subjected to MSD analysis. The data was normalized using protein concentration and PBMC cell numbers, separately, for comparison.
For biomarker detection of IRAK4 in samples, MSD® or Meso Scale Discovery® biomarker assays technology was utilized, which is an ELISA-based method.
For the capture or coating step, 100 μL of IRAK4 Monoclonal Antibody (2H9) (Fisher, Catalog no. MA5-15883) was added to 96 well MSD multi-array 96 well plate (MSD Catalog no. L15XA-3, MSD multi-array 96 well plate). The plate was sealed and incubated overnight at 2-8° C. The plate was washed 5×300 μL/well with tris buffered saline wash buffer. 300 μL of blocking Buffer (3% BSA in 0.1% PBST) (Wuxi, Catalog no. BB-20211112-YJC) was added. The plate was sealed and incubated for 2 h±10 minutes at room temperature without shaking. The plate was washed 5×300 μL/well with tris buffered saline wash buffer. 100 μL of standard and samples were added into each well. The plate was sealed and incubated for 1 h 10 minutes at room temperature with shaking at 500 rpm. The plate was washed 5×300 μL/well with tris buffered saline wash buffer. 100 μL of detection solution containing IRAK4 antibody (Catalog no. 4363, Cell Signaling Technology, Danvers, MA, USA) was added into each well. The plate was sealed and incubated for 1 h 10 min at RT with shaking at 500 RPM. The plate was washed 5×300 μL/well with tris buffered saline wash buffer. 100 μL of sulfotag solution containing Sulfo-Tag labeled anti-rabbit antibody (Goat) (Catalog no. R32AB-1, Meso Scale Diagnostics, Rockville, MD, USA) was added into each well. The plate was sealed and incubated for 1 h+10 minutes at room temperature with shaking at 500 RPM. The plate was washed 5×300 […] with tris buffered saline wash buffer. […]

| SMILES | IRAK4 change from vehicle (time 2 h) [%] | IRAK4 change from vehicle (time 8 h) [%] | IRAK4 change from vehicle (time 24 h) [%] | IRAK4 change from vehicle (time 48 h) [%] | IRAK4 change from vehicle (time 72 h) [%] | IRAK4 change from vehicle (time 96 h) [%] |
| --- | --- | --- | --- | --- | --- | --- |
| CC(C)Oc1cc2nc([C@H]3CC[C@H](CN4CCC(c5ccc6c(c5)n(C)c(=O)n6C5CCC(=O)NC5=O)CC4)CC3)cn2cc1C(=O)Nc1cnn2cccnc12 (stereo partly drawn) [Compound 48, 2-[4-[[4-[1-(2,6-dioxo-3-piperidyl)-3-methyl-2-oxo-benzimidazol-5-yl]-1-piperidyl]methyl]cyclohexyl]-7-isopropoxy-N-pyrazolo[1,5-a]pyrimidin-3-yl-imidazo[1,2-a]pyridine-6-carboxamide] | −50 | −87 | −96 | −94 | −94 | −87 |
| CC(C)Oc1cc2nc([C@H]3CC[C@H](CN4CCC(c5ccc6c(c5)n(C)c(=O)n6C5CCC(=O)NC5=O)CC4)CC3)cn2cc1C(=O)Nc1cccn([C@H]2C[C@H]2F)c1=O (stereo partly drawn) [Compound 169, 2-((1R,4S)-4-((4-(1-(2,6-dioxopiperidin-3-yl)-3-methyl-2-oxo-2,3-dihydro-1H-benzo[d]imidazol-5-yl)piperidin-1-yl)methyl)cyclohexyl)-N-(1-((1S,2R)-2-fluorocyclopropyl)-2-oxo-1,2-dihydropyridin-3-yl)-7-isopropoxyimidazo[1,2-a]pyridine-6-carboxamide] | −62 | −83 | −97 | −97 | −94 | −90 |
